Consider 28 compounds from patent US20220281825A1 (priority 2016, published 2022).

The subject of series [1] is JUNV-p. In words: organism not typed. The class given is cell-based, Junin (JUNV). The conditions noted are these: Vero, 24 h, read-out: JUNV-p EC50 (nM).
For series [2], the system named is TCRV-p. In words: organism not typed. The class given is cell-based. The conditions noted are these: Vero, 24 h, read-out: TCRV-p EC50 (nM).
Series [3] is described as follows: in vitro. To be noted: African green monkey.
The subject of series [4] is MACV-p. In words: organism not typed. It counts as cell-based, Machupo (MACV). To be noted: Vero, 24 h, read-out: MACV-p EC50 (nM).
The subject of series [5] is LASV-p. As to the kind of experiment: organism not typed. It counts as cell-based, Lassa (LASV). To be noted: Vero, 24 h, read-out: LASV-p EC50 (nM).

Where only a bound is given, the exact number is not on record here.

What is called EC50 is the concentration needed to bring the measured effect to its halfway point.

As for `COc1ccc(-n2cnc3ccc(-c4cccc(C(C)C)c4)cc32)cc1` [Example A1, 1-(4-Methoxyphenyl)-6-[3-(propan-2-yl)phenyl]-1H-1,3-benzodiazole], the EC50 in series [1] was > 100 nM; in series [2] it was > 100 nM; in series [4] it was > 100 nM; in series [5] it was 31.7 nM. Further, the CC50 in series [3] came to 12900 nM.

Turning to `COc1ccc(-n2cnc3ccc(Cc4ccc(C)cc4)cc32)cc1` [Example A9, 1-(4-methoxyphenyl)-6-[(4-methylphenyl)methyl]-1H-1,3-benzodiazole], in series [5], the EC50 was > 100 nM.

Regarding `COc1ccc(-n2cnc3ccc(-c4ccc(S(C)(=O)=O)cc4)cc32)cc1` [Example A11, 6-(4-methanesulfonylphenyl)-1-(4-methoxyphenyl)-1H-1,3-benzodiazole], the EC50 in series [1], in series [2], in series [4] and in series [5] was > 25 nM throughout.

As for `COc1ccc(-n2cnc3c(-c4ccc(C(C)C)cc4)cccc32)cc1` [Example A19, 1-(4-methoxyphenyl)-4-[4-(propan-2-yl)phenyl]-1H-1,3-benzodiazole], the EC50 in series [5] is > 100 nM.

As for `COc1ccc(-n2cnc3c(-c4cccc(C(C)C)c4)cccc32)cc1` [Example A20, 1-(4-methoxyphenyl)-4-[3-(propan-2-yl)phenyl]-1H-1,3-benzodiazole], the EC50 in series [5] is > 100 nM.

Take `COc1ccccc1-n1cnc2ccc(-c3ccc(C(C)(C)O)cc3)cc21` [Example A22, 2-{4-[1-(2-methoxyphenyl)-1H-1,3-benzodiazol-6-yl]phenyl}propan-2-ol]: the half-maximal effective concentration (EC50) in series [1], in series [2], in series [4] and in series [5] was > 25 nM throughout.

Regarding `COc1cccc(-n2cnc3ccc(-c4ccc(C(C)(C)O)cc4)cc32)c1` [Example A23, 2-{4-[1-(3-methoxyphenyl)-1H-1,3-benzodiazol-6-yl]phenyl}propan-2-ol], the EC50 in series [1], in series [2], in series [4] and in series [5] was > 25 nM throughout.

On to `CC(=O)c1ccc(-c2ccc3ncn(-c4ccc5[nH]ccc5c4)c3c2)cc1` [Example A28, 1-{4-[1-(1H-indol-5-yl)-1H-1,3-benzodiazol-6-yl]phenyl}ethan-1-one], for which the EC50 is 7.29 nM in series [1], > 25 nM in series [2], > 25 nM in series [4] and 11 nM in series [5].

Turning to `c1cc2cc(-c3ccc4ncn(-c5ccc6[nH]ccc6c5)c4c3)ccc2[nH]1` [Example A29, 1,6-bis(1H-indol-5-yl)-1H-1,3-benzodiazole], the EC50 came out at 6.96 nM in series [1], 15.2 nM in series [2], 11.1 nM in series [4] and 0.53 nM in series [5].

For the compound `CC(C)Oc1ccc(-n2cnc3cnc(-c4ccc(C(C)(C)O)cc4)cc32)cc1` [Example B5, 2-(4-{1-[4-(propan-2-yloxy)phenyl]-1H-imidazo[4,5-c]pyridin-6-yl}phenyl)propan-2-ol], the EC50 in series [1] was 13.4 nM; in series [2] it was > 25 nM; in series [4], > 25 nM; in series [5], > 25 nM.

As for `CC(=O)c1ccc(-c2cc3c(cn2)ncn3-c2ccc(OC(C)C)cc2)cc1` [Example B8, 1-(4-{1-[4-(propan-2-yloxy)phenyl]-1H-imidazo[4,5-c]pyridin-6-yl}phenyl)ethan-1-one], the EC50 in series [1], in series [2], in series [4] and in series [5] was > 25 nM each time.

Turning to `CC(C)Oc1ccc(-c2cnc3ccc(-c4ccc(N)nc4)cn23)cc1` [Example C14, 5-{3-[4-(propan-2-yloxy)phenyl]imidazo[1,2-a]pyridin-6-yl}pyridin-2-amine], the EC50 in series [1], in series [2], in series [4] and in series [5] was > 25 nM each time.

For the compound `CC(C)Oc1ccc(-c2cnc3ccc(-c4ccc(C(N)=O)cc4)cn23)cc1` [Example C16, 4-{3-[4-(propan-2-yloxy)phenyl]imidazo[1,2-a]pyridin-6-yl}benzamide], the EC50 in series [1], in series [2], in series [4] and in series [5] was > 25 nM in each case.

Take `CC(C)Oc1ccc(-c2cnc3ccc(-c4ccc(OC(C)C)cc4F)cn23)cc1` [Example C23, 6-[2-fluoro-4-(propan-2-yloxy)phenyl]-3-[4-(propan-2-yloxy)phenyl]imidazo[1,2-a]pyridine]: the EC50 in series [1], in series [2], in series [4] and in series [5] was > 25 nM in each case.

With `CC(C)Oc1ccc(-c2cnc3ccc(-c4ccc(OCCN5CCOCC5)cc4)cn23)cc1` [Example C25, 4-[2-(4-{3-[4-(propan-2-yloxy)phenyl]imidazo[1,2-a]pyridin-6-yl}phenoxy)ethyl]morpholine], the EC50 in series [1] is ≥ 25 nM; in series [2] it was > 25 nM; in series [4], > 25 nM; in series [5] it was > 25 nM.

For `CC(C)Oc1ccc(-c2cnc3ccc(-c4ccc(C5(O)CNC5)cc4)cn23)cc1` [Example C29, 3-(4-{3-[4-(propan-2-yloxy)phenyl]imidazo[1,2-a]pyridin-6-yl}phenyl)azetidin-3-ol], the EC50 in series [1], in series [2], in series [4] and in series [5] was > 25 nM in each case.

With `CC(C)Oc1ccc(-c2ccc3ncc(-c4ccc5c(c4)CCO5)n3c2)cc1` [Example C34, 3-(2,3-dihydro-1-benzofuran-5-yl)-6-[4-(propan-2-yloxy)phenyl]imidazo[1,2-a]pyridine], the EC50 was 3.68 nM in series [1], 16.5 nM in series [2], 25.1 nM in series [4] and 4.73 nM in series [5].

As for `CC(C)Oc1ccc(-c2ccc3ncc(-c4ccc(C(F)F)cc4)n3c2)cc1` [Example C36, 3-[4-(difluoromethyl)phenyl]-6-[4-(propan-2-yloxy)phenyl]imidazo[1,2-a]pyridine], the EC50 in series [1] is 23.2 nM; in series [2], > 25 nM; in series [4], > 25 nM; in series [5], 8.18 nM.

Turning to `CC(C)Oc1ccc(-c2ccc3ncc(-c4ccc(OCCN5CCOCC5)cc4)n3c2)cc1` [Example C43, 4-[2-(4-{6-[4-(propan-2-yloxy)phenyl]imidazo[1,2-a]pyridin-3-yl}phenoxy)ethyl]morpholine], the EC50 in series [1], in series [2], in series [4] and in series [5] was > 25 nM in each case.

As for `CC(C)Oc1ccc(-c2ccc3ncc(-c4ccc(C(=O)O)cc4)n3c2)cc1` [Example C45, 4-{6-[4-(propan-2-yloxy)phenyl]imidazo[1,2-a]pyridin-3-yl}benzoic acid], the EC50 in series [1], in series [2], in series [4] and in series [5] was > 25 nM in each case.

Turning to `CC(C)Oc1ccc(-c2ccc3cnn(-c4ccc(OC(C)C)cc4)c3c2)cc1` [Example D1, 1,6-bis[4-(propan-2-yloxy)phenyl]-1H-indazole], the EC50 in series [1] was 14 nM; in series [2], > 25 nM; in series [4] it was > 25 nM; in series [5], > 25 nM.

With `CC(C)Oc1ccc(-c2ccc3ccn(-c4ccc(OC(C)C)cc4)c3c2)cc1` [Example D4, 1,6-bis[4-(propan-2-yloxy)phenyl]-1H-indole], the EC50 in series [1] is 8.1 nM; in series [2], > 25 nM; in series [4], 16.9 nM; in series [5], > 25 nM.

For the compound `CC(C)Oc1ccc(-c2ccc3occ(-c4ccc(OC(C)C)cc4)c3c2)cc1` [Example D8, 3,5-bis[4-(propan-2-yloxy)phenyl]-1-benzofuran], the EC50 in series [1], in series [2], in series [4] and in series [5] was > 25 nM in each case.

Consider `CC(C)Oc1ccc(-c2coc3ccc(-c4ccc5[nH]ccc5c4)cc23)cc1` [Example D9, 5-{3-[4-(propan-2-yloxy)phenyl]-1-benzofuran-5-yl}-1H-indole], for which the half-maximal effective concentration (EC50) in series [1], in series [2], in series [4] and in series [5] was > 25 nM in each case.

`CC(=O)c1ccc(-c2cnc3cnc(-c4ccc(OC(C)C)cc4)cn23)cc1` [Example D14, 1-(4-{6-[4-(propan-2-yloxy)phenyl]imidazo[1,2-a]pyrazin-3-yl}phenyl)ethan-1-one]: the EC50 in series [1] was determined as 13.5 nM; in series [2], 20.2 nM; in series [4] it was 25 nM; in series [5], 6.77 nM.

On to `CC(C)Oc1ccc(-c2ccc3cnc(-c4ccc(OC(C)C)cc4)n3c2)cc1` [Example D17, 3,6-bis[4-(propan-2-yloxy)phenyl]imidazo[1,5-a]pyridine], for which the EC50 in series [1], in series [2], in series [4] and in series [5] was > 25 nM in each case.

For `CCOC(=O)c1nc2ccc(-c3ccc(OC(C)C)cc3)cn2c1-c1ccc(OC(C)C)cc1` [Example D20, ethyl 3,6-bis[4-(propan-2-yloxy)phenyl]imidazo[1,2-a]pyridine-2-carboxylate], the EC50 in series [1], in series [2], in series [4] and in series [5] was > 25 nM each time.

For `CC(C)Oc1ccc(-c2ccc3nc(C(=O)O)c(-c4ccc(OC(C)C)cc4)n3c2)cc1` [Example D21, 3,6-bis[4-(propan-2-yloxy)phenyl]imidazo[1,2-a]pyridine-2-carboxylic acid], the EC50 in series [1], in series [2], in series [4] and in series [5] was > 25 nM each time.
